Measured values as given in patent US20230026360A1, “DETECTION OF MOLECULAR INTERACTIONS” (Orionis Biosciences, Inc., priority 2019, published 2023).
Entries after “also recorded” stand apart in the source; their conditions may differ.

Key:
Format in all cases: cell-based
CRBN-IKZF2 interaction = CRBN-IKZF2 interaction (Homo sapiens, UniProt Q96SW2); test: MAPPIT forward assay, CRBN receptor fusion + IKZF2 gp130 fusion; set-up: MAPPIT chimeric receptor (EPO receptor extracellular domain + signaling-deficient leptin receptor part); expressed in transfected cells; host or cells: HEK293T; details: forward configuration; HEK293T cells; EPO; dose-response
Excerpt: (§1) The traditional MAPPIT assay has been used to monitor protein-protein interactions. A bait protein (protein A) is expressed as a fusion protein in which it is genetically fused to an engineered intracellular receptor domain of the leptin receptor, which is itself fused to the extracellular domain of the erythropoietin (Epo) receptor. Binding of Epo ligand to the Epo receptor component results in activation of receptor-associated intracellular JAK2. However, activated JAK2 cannot activate the leptin receptor to trigger STAT3 binding and its phosphorylation because its tyrosine residues, normally phosphorylated by activated JAK2, have been mutated. […] Activation of STAT3 can be monitored by introduction of a STAT3-responsive reporter gene, including a luciferase-encoding gene or a gene encoding a fluorescent marker such as GFP or some other type of Fluorescent Protein (EGFP etc.). […]
(§2) Full size proteins were fused for each of the target/prey proteins tested, except in the case of IKZF1 where isoform 7 was used. […] Luciferase activity was measured 24 hours after test compound treatment using the Luciferase Assay System kit (PROMEGA, Madison, Wis.) with an Ensight plate reader (PERKIN ELMER LIFE SCIENCES, Waltham, Mass.). […]

[1] = biological target: CRBN-CSNK1A (CK1a) interaction (Homo sapiens, UniProt Q96SW2); test: MAPPIT forward assay, CRBN receptor fusion + CSNK1A1 gp130 fusion; set-up: MAPPIT chimeric receptor (EPO receptor extracellular domain + signaling-deficient leptin receptor part); expressed in transfected cells; host or cells: HEK293T; details: forward configuration; HEK293T cells; EPO; dose-response
Excerpt: as §1, §2

CRBN-ZFP91 interaction = CRBN-ZFP91 interaction (Homo sapiens, UniProt Q96SW2); test: MAPPIT forward assay, CRBN receptor fusion + ZFP91 gp130 fusion; set-up: MAPPIT chimeric receptor (EPO receptor extracellular domain + signaling-deficient leptin receptor part); expressed in transfected cells; host or cells: HEK293T; details: forward configuration; HEK293T cells; EPO; dose-response
Excerpt: as §1, §2

CRBN = biological target: T1, CRBN (Homo sapiens, UniProt Q96SW2); test: CRBN inverse MAPPIT competition assay against TMP-lenalidomide hybrid ligand; details: 300 nM TMP-lenalidomide; leptin; HEK293T; specificity versus gp130-REM2 control (CTRL)
T1 construct: expressed in transfected cells; host or cells: HEK293T
Excerpt: As in Example 6, HEK293T cells were transfected with a plasmid encoding E. coli Dihydrofolate Reductase (DHFR) fused to the tails of the cytoplasmic domain of a mutated leptin receptor (pCLG-DHFR), a plasmid encoding a CRBN prey fused to the gp130 cytoplasmic domain or a plasmid encoding a gp130-REM2 control fusion that can directly interact with the leptin receptor of the DHFR fusion protein, and the STAT3 responsive pXP2d2-rPAPI-luciferase reporter plasmid—using a standard transfection method, as described (Lievens, et al. “Array MAPPIT: high-throughput interactome analysis in mammalian cells.” Journal of Proteome Research 8.2 (2009): 877-886). […] Data points in FIGS. 10A-B represent the average luciferase activity of triplicate samples derived from cells treated with leptin+test compound for the REM2 control (CTRL) or cells treated with leptin+hybrid ligand+test compound (CRBN) relative to leptin (CTRL) or leptin+hybrid ligand (CRBN) only treated samples (the signals obtained in absence of added test compound for both cases is set at 100% of luciferase activity on y-axis). Error bars represent standard deviations. Curves were fit using 4-parameter nonlinear regression in […] PRISM software.

CRBN-IKZF1 interaction = biological target: T2, CRBN-IKZF1 interaction (Homo sapiens, UniProt Q96SW2); test: MAPPIT inverse assay, CRBN gp130 fusion + IKZF1 receptor fusion; details: inverse configuration; HEK293T cells; EPO; dose-response; IKZF1 isoform 7
T2 construct: expressed in transfected cells; host or cells: HEK293T
Excerpt: as §1, §2

O=C1CC[C@H](N2Cc3c(OCc4ccc(CN5CCOCC5)cc4)cccc3C2=O)C(=O)N1 [CC-220]
compound-induced binding of IKZF2 to CRBN (luciferase reporter signal) (CRBN-IKZF2 interaction): only in the inverse assay setup an interaction signal response could be detected
compound-induced binding of CSNK1A (CK1a) to CRBN (luciferase reporter signal) [1]: only in the inverse assay setup an interaction signal response could be detected
compound-induced binding of ZFP91 to CRBN (luciferase reporter signal) (CRBN-ZFP91 interaction): only in the inverse assay setup an interaction signal response could be detected
competition with TMP-lenalidomide hybrid ligand for binding to CRBN (inhibition of luciferase signal) (CRBN): specifically inhibit hybrid-ligand induced luciferase reporter activation in a dose-dependent manner; also recorded: competed efficiently
compound-induced binding of IKZF1 to CRBN (luciferase reporter signal) (CRBN-IKZF1 interaction): can be detected with both the forward and the inverse assay configuration
